Assay results as given in patent US20250034106A1, “3-CYCLOAMINO-INDOLE COMPOUNDS AS SEROTONERGIC AGENTS USEFUL FOR THE TREATMENT OF DISORDERS RELATED THERETO” (Mindset Pharma Inc., priority 2021, published 2025).
Like-named read-outs stand apart in the source and are kept apart here.

Columns and labels:
[1] = DMT and 5-MeO-DMT consumed parenterally; cited from earlier work
human 5-HT2A [2] = molecular target: T1, human 5-HT2A (Homo sapiens (Human), UniProt P28223); assay: Human 5-HT2A radioligand binding assay ([3H]-ketanserin); settings: competition with [3H]-ketanserin; read-out: h5-HT2A IC50
[3] = molecular target: human 5-HT2A (h5-HT2A) receptor (Homo sapiens (Human), UniProt P28223); assay: FLIPR assay, human 5-HT2A, agonist mode; type: cell-based; settings: FLIPR calcium assay
Procedure: 4. […] Vortexed vigorously for 1-2 minutes.
8. 3×compound in assay buffer was prepared: a. Reference compounds were diluted to required concentration with DMSO. […] Serial dilutions were performed; c.
ii. Calculated the percentage activation by using following equation:
% Activation=(RFU compound−RFU low control)/(RFU top concentration of reference agonist−RFU low control)×100%

human 5-HT2A [4] = molecular target: T1, human 5-HT2A; settings: cited from earlier work
[5] = cited from earlier work

Compound | duration of action / effects [1] | IC50 (human 5-HT2A [2]) [µM] | EC50 [3] [µM] | other results
COc1ccc2[nH]cc(CCN(C)C)c2c1 [Compound 5-MeO-DMT, 5-methoxy-N,N-dimethyltryptamine] | less than 1 h | – | – | –
[2H]c1[nH]c2c([2H])c([2H])c([2H])c([2H])c2c1C1CC([2H])([2H])N(C)C1([2H])[2H] (stereo not drawn) [Compound 1-44, 3-(1-Methylpyrrolidin-3-yl-2,2,5,5-d4)-1H-indole-2,4,5,6,7-d5] | – | < 0.5 | > 10 | –
[2H]C1([2H])CC(c2c[nH]c3ccc(OC)cc23)C([2H])([2H])N1C (stereo not drawn) [Compound 1-54, 5-Methoxy-3-(1-methylpyrrolidin-3-yl-2,2,5,5-d4)-1H-indole] | – | 0.5 to 10 | – | –
CN(C)CCc1c[nH]c2ccccc12 [DMT, N,N-dimethyltryptamine] | less than 1 h | < 0.5 | – | binding affinity 5-HT2A (human 5-HT2A [4]): 0.237 µM
[2H]c1[nH]c2c([2H])c([2H])c([2H])c([2H])c2c1C1CCNCC1 [Compound 1-1, 3-(piperidin-4-yl)-1H-indole-2,4,5,6,7-d5] | – | 0.5 to 10 | 1 to 10 | –
[2H]C([2H])([2H])N1CCC(c2c[nH]c3ccccc23)C1 (stereo not drawn) [Compound 1-48] | – | 0.5 to 10 | – | –
CN(C)CCc1c[nH]c2cccc(OP(=O)(O)O)c12 [psilocybin, 4-phosphoryloxy-N,N-dimethyltrypatmine] | 5 to 8 h | – | – | abstinence rate ([5]; 12 months follow-up): 67%; abstinence rate ([5]; six months follow-up): 80%
[2H]c1[nH]c2c([2H])c([2H])c([2H])c([2H])c2c1C1CCN(C)C1 (stereo not drawn) [Compound 1-32, 3-(1-Methylpyrrolidin-3-yl)-1H-indole-2,4,5,6,7-d5] | – | < 0.5 | > 10 | –
